US10532065B2, “Bisphosphonic acid derivative and application for same” (NAGASAKI UNIVERSITY, priority 2014, dated 2020)

What was measured:
Format in all cases: cell-based
EJ-1 cells / γδ T cells = assay: TNF-α production from γδ T cells stimulated by compound-pretreated EJ-1 cells (indirect antitumor action, ELISA); settings: EJ-1 pretreated 4 hr with compound, 16 hr with γδ T cells, TNF-α ELISA; read-out: TNF-α50
Description: The indirect antitumor action of bisphosphonic acid POM esters and bisphosphonic acids was studied by comparison using EJ-1. In principle, EJ-1 is treated with a compound, washed, and reacted with γδ T cells, and the cytotoxic ability is studied by comparison, by quantifying TNF-α produced by γδ T cells during cell disordering. TNF-α is generally used as an index of γδ T cell induction ability and/or proliferative capacity, and γδ T cells are considered to be induced and/or proliferated in proportion to the TNF-α amount (Journal of Immunology, 154, 5986-5994 (1995)). Since the produced TNF-α is what is called a tumor necrosis factor, it is considered to have an action to lower proliferation of cancer cells or induce cell death.
Thereto was added a solution (500 μl) of compounds 3, 5, 6, 7, which are bisphosphonic acid POM ester derivatives, obtained by serially diluting 10 mM stock solution 10-fold from 20 μM, or a solution (500 μl) of bisphosphonic acid 10, 12, 13, 14 compound obtained by serially diluting 10-fold from 200 μM, and the cells were suspended well. These conical tubes were stood at 37° C. for 4 hr, and the cells were washed 3 times with 5 ml of culture medium. To these cells was added 500 μl of medium, and the cells were suspended well. […] The cell culture medium was suspended well, and the plate was centrifuged at 1,700 rpm, 4° C. for 2 min and the culture supernatant (150 μl) was taken and placed in another round-bottomed 96 well plate. The plate was frozen at −80° C. overnight, left standing at room temperature for 1 hr, stirred well and 100 μl thereof was subjected to ELISA of TNF-α. The content of TNF-α was calculated from the analytical curve of TNF-α. These were performed in triplicate, and a graph showing bisphosphonic acid POM ester derivative and the corresponding bisphosphonic acid as one pair was plotted. […] The results of bisphosphonic acid POM ester derivative are shown by -●-, and the results of bisphosphonic acid are shown by -◯-.
The indirect antitumor action of bisphosphonic acid POM esters and bisphosphonic acids was quantitatively studied by comparison using EJ-1. […] Thereto was added a solution (500 μl) of a bisphosphonic acid POM ester derivative obtained by serially diluting 10 mM stock solution 10-fold from 20 μM, or a bisphosphonic acid solution (500 μl) serially diluted 10-fold from 200 μM was added, and the cells were suspended well. These conical tubes were stood at 37° C. for 4 hr, and the cells were washed 3 times with 5 ml of culture medium. To these cells was added 500 μl of medium, and the cells were suspended well. […] The cell culture medium was suspended well, and the plate was centrifuged at 1,700 rpm, 4° C. for 2 min and the culture supernatant (150 μl) was taken and placed in another round-bottomed 96 well plate. The plate was frozen at −80° C. overnight, left standing at room temperature for 1 hr, stirred well and 100 μl thereof was subjected to ELISA of TNF-α. The content of TNF-α was calculated from the analytical curve of TNF-α. These were performed in triplicate, and a half of the concentration of compounds 1-7, which are bisphosphonic acid POM ester derivatives, and compounds 8-14, which are bisphosphonic acids, necessary for producing the maximum amount of TNF-α from γδ T cells was calculated as TNF-α50, and summarized in Table 6.
Therefore, the TNF-α50 value of various bisphosphonic acid POM ester derivatives was calculated. […] Thereto was added a solution (500 μl) of compounds 1-7 and 15-39, which are bisphosphonic acid POM ester derivatives, and compound 42, which is other bisphosphonic acid ester derivative, obtained by serially diluting 10 mM stock solution 10-fold from 20 μM, and the cells were suspended well. These conical tubes were stood at 37° C. for 4 hr, and the cells were washed 3 times with 5 ml of culture medium. To these cells was added 500 μl of medium, and the cells were suspended well. […]

U937 cells = assay: U937 cell growth inhibition (direct antitumor action, CellTiterGlo); settings: for IC50: U937 cell growth inhibition, 4 days culture
Description: (§1) The direct antitumor action of bisphosphonic acid POM ester and bisphosphonic acid was studied by comparison using U937.
(§2) The direct antitumor action of various bisphosphonic acid POM esters was studied by comparison using U937 and EJ-1. The measurement was performed according to Experimental Example 2 and Experimental Example 4.

EJ-1 cells = assay: EJ-1 cell growth inhibition (direct antitumor action, CellTiterGlo); settings: for IC50: EJ-1 (bladder cancer) growth inhibition, 4 days culture
Description: as §1
(§3) The direct antitumor action of bisphosphonic acid POM ester derivatives and bisphosphonic acids was studied by comparison using EJ-1. It was performed in the same manner as in Experimental Example 1 except that EJ-1 was used as the cell to be used. For recovery of the cells, a conventional EDTA trypsin treatment was performed.
as §3, with “POM esters” for “POM ester derivatives”, “Example 2” for “Example 1”
as §2

Row | EC50 (EJ-1 cells / γδ T cells) | IC50 (U937 cells) | IC50 (EJ-1 cells) | SMILES | direct antitumor activity (in words) (U937 cells; U937 growth inhibition) | direct antitumor activity (in words) (EJ-1 cells; EJ-1 growth inhibition)
1 | 4.4 µM | 6.3 µM | 12 µM | CC(C)(C)C(=O)OCOP(=O)(OCOC(=O)C(C)(C)C)C(CNc1cc[nH]n1)P(=O)(OCOC(=O)C(C)(C)C)OCOC(=O)C(C)(C)C [Compound 32, tetrakispivaloyloxymethyl 2-(pyrazol-3-ylamino) ethylidene-1,1-bisphosphonate] | – | –
2 | 5.1 µM | 6.8 µM | 15 µM | Cc1ccnc(NCC(P(=O)(OCOC(=O)C(C)(C)C)OCOC(=O)C(C)(C)C)P(=O)(OCOC(=O)C(C)(C)C)OCOC(=O)C(C)(C)C)c1 [Compound 16, tetrakispivaloyloxymethyl 2-(4-methylpyridin-2-ylamino)ethylidene-1,1-bisphosphonate] | – | –
3 | 1.6 µM | 2.2 µM | 1.7 µM | CC(C)(C)C(=O)OCOP(=O)(OCOC(=O)C(C)(C)C)C(Cn1ccc2cccnc21)P(=O)(OCOC(=O)C(C)(C)C)OCOC(=O)C(C)(C)C [Compound 31, tetrakispivaloyloxymethyl 2-(7-azaindol-1-yl)ethylidene-1,1-bisphosphonate] | high activity | high activity
